For assay [1], the system named is LPC-induced demyelination in young male adult mice. Description: LPC-induced demyelination of the corpus callosum with or without SAG (immunostaining at 2 and 10 dpl). The format is in vivo, mouse. The procedure: Image Acquisition and Analysis. Images were taken using the microscope analyzing system Axiovision 4.2 (Carl Zeiss, Inc.), the confocal Zeiss LSM 510-Meta Confocor 2 and the scanner imager with the CaseViewer software. Analyses were performed with ImageJ software. At least 10 sections per mouse were analyzed and data are the mean of 3-5 mice. For the brains derived from the lysolecithin (LPC)-injected animals, immunofluorescent-positive cells or areas were determined in one every other 5 sections throughout the whole demyelinated lesion per mouse and averaged for each animal. The lesion surface was determined by measuring the area of the nuclear densification (correlated with myelin loss visualized by MBP or PLP staining) one every other 5 slices through the whole demyelinated lesion.
The effect of Smo activation by the Smo agonist SAG on demyelination was investigated as follows. LPC-induced demyelination was performed as previously described in Ferent et al., J. Neuroscience 33:1759-1772 (2013), in the absence or presence of SAG, in young male adult mice. Briefly, demyelinating lesions were induced unilaterally by stereotaxic injections of 2 μl of a solution containing LPC 1% (Sigma-Aldrich) along with SAG (0.2 μM) or the corresponding vehicle, into the right corpus callosum by using a Hamilton syringe specifically dedicated for neural surgery (NH BIO, France). The injection was performed at the following coordinates (to the bregma): anteroposterior (AP)+1 mm, lateral+1 mm, dorsoventral (DV) −2.2 mm. The brain was removed from deeply anesthetized mice and transcardially perfused with 4% PFA. The tissue was post-fixed for 4 hours in a fresh 4% PFA solution before being cryopreserved in 30% sucrose, frozen in liquid nitrogen and cryostat sectioned (14 μm). 4-5 mice were used per time point for each treatment condition. Mice were sacrificed at 2 and 10 days post-lesion (dpl), and prepared for immunostaining of PDGFRα, Olig2/APC, Ki67/PDGFRα, GFAP, and Iba1/Arg1. Images of immunostaining were acquired using immunofluorescence microscopy (data not shown), and the results were quantified by evaluating number of cells per surface unit for PDGFRα (FIG. 4A), Olig2/APC (FIG. 4B), Ki67/PDGFRα (FIG. 4C), GFAP (FIG. 4D), Iba1/Arg1 (FIG. 4E)

In assay [2] the test system is experimental autoimmune encephalomyelitis (EAE) in castrated male mice. Description: Experimental autoimmune encephalomyelitis (EAE): clinical score, electron microscopy and immunostaining of lumbar spinal cord. It is filed as in vivo, mouse. The settings on record: for density of myelinated axons in spinal cord (electron microscopy) / g-ratio (axon diameter/total outer diameter of the myelinated fiber) / percentage of abnormal axons among total axons: 30 days post EAE induction; for g-ratio (axon diameter/total outer diameter of the myelinated fiber): small calibre axons (≤2.5 μm), n=3; for total density of activated Iba1+ microglia in the spinal cord: FIG. 5E; for EAE clinical score: between days 21 and 30, testosterone intranasal 0.2 mg/day, SAG oral gavage every other day; for area occupied by Arg1+ cells as percentage of the total area of the lesion: lumbar spinal cord, FIG. 5F; for percentage of abnormal axons among total axons / GFAP-positive area as percentage of the lesion area: spinal cord; for GFAP-positive area as percentage of the lesion area: FIG. 5G. The protocol: Electron microscopy. […] The g ratio (the ratio between the axon diameter and fiber diameter corresponding to myelin sheath+axon diameter) was estimated by measuring the minimum and maximum axon diameter and fiber diameter for each axon using ImageJ software. At least 300 randomly chosen myelinated axons were evaluated for each animal.
The pathology was induced according to the instructions from the provider (Hooke Laboratories, MA, USA). Briefly, mice were immunized by subcutaneous injection of an emulsion of MOG35-55 peptide (myelin oligodendrocyte glycoprotein[…] fragment 35-55) in complete Freund's adjuvant (at two sites using 0.1 ml of the pre-conditioned mixture for each site) followed on the same day (Day 0) by a first intraperitoneal injection of pertussis toxin in PBS and by a second one on Day 1 (250 ng/dose). The mice were scored blindly once a day starting at Day 7 post-immunization until Day 30 according to the following scale: 0.0=no obvious changes in motor function; 0.5=tip of tail is limp; 1.0=limp tail; 1.5=limp tail and hind leg inhibition; 2.0=limp tail and weakness of hind legs or signs of head tilting; 2.5=limp tail and dragging of hind legs or signs of head tilting; 3.0=limp tail and complete paralysis of hind legs or limb tail with paralysis of one front and one hind leg; 3.5=limp tail and complete paralysis of hind legs and animal unable to right itself when placed on its side; 4.0=limb tail, complete hind leg and partial front leg paralysis with minimal moving and feeding; 4.5=complete hind and partial front leg paralysis with no movement around the cage with the animal appearing no more alert; 5.0=extreme paralysis which requires euthanasia of the animal.
The active agents were administered at the onset of clinical symptoms until Day 30 after immunization. Testosterone was administered via the intranasal route (0.2 mg/day in a volume of 2.5 μl in each nostril) in an oleogel composition as described above. SAG was administered orally by gavage ([…] of mouse weight) every other day.
The animals were sacrificed by ketamine overdose. The spinal cord/vertebrae was removed and lumbar spinal cord/vertebrae samples were treated according to the requirements of the various histological procedures. For immunostaining, the spinal cord/vertebrae fragments were post-fixed in PFA 4% for 24 hrs. The spinal cords were removed from the vertebral column, processed in an ethanol/xylene bath and embedded in paraffin blocks. 7-μm sections were then obtained using a microtome (Leica) and allowed to dry on glass slides overnight at 37° C. For electron microscopy, the spinal cord/vertebrae fragments were post-fixed in a mixture of PFA 2% and glutaraldehyde 2% for 5 days. The spinal cords were removed from the vertebral column, post-fixed in cacodylate-buffered 1% osmium tetroxide for 1 hour at 4° C. and in 2% uranyl acetate for 1 hour at room temperature, and then dehydrated by serial dilutions of ethanol and embedded in epoxy resin. Ultrathin sections were contrasted with a saturated uranyl acetate solution.

Assay [3] relates to primary mixed glial cells derived from Plp-EGP mice. As to the kind of experiment: Differentiation of PLP+ oligodendroglial cells co-expressing MBP in primary mixed glial cells from Plp-EGFP mice. The settings on record: for fold increase in the percentage of PLP+ cells co-expressing MBP compared to control / percentage of PLP+ cells co-expressing MBP: SANT 0.1 μM, testosterone 1 μM, alone or together; for percentage of PLP+ cells co-expressing MBP: 12 DIV. It is filed as cell-based, mouse. The procedure:
Briefly, meninges are removed, and the dorsal telencephalons are microdissected and mechanically dissociated in DMEM supplemented with 10% calf serum, penicillin (50 U/ml), and streptomycin (50 μg/ml) (Thermo Fisher Scientific, France). The cell suspension is plated in a 24-well plates containing 0.5 ml of cultured medium coated with 30 μg/ml poly-1-lysine (Sigma-Aldrich).
The supplemented culture medium was replaced every other day with a fresh solution.
To analyse differentiation of myelin producing cells, the primary mixed glial cells were derived from Plp-EGP mice and cultured as described above. Detection of PLP+ cells co-expressing MBP was performed by using primary mixed glial cells derived from Plp-EGP mice and immunostaining for Mbp. Immunofluorescence images were acquired as described above and the number of PLP^+ cells co-expressing MBP were evaluated.

In assay [4] the test system is primary mixed glial cells. As to the kind of experiment: Proliferation of Olig2+ cells (BrdU incorporation) in primary mixed glial cell cultures. It is filed as cell-based, mouse. To be noted: for Olig2+ BrdU+ proliferating cells as percentage of total Olig2+ cells: SAG 1 μM or testosterone 1 μM from 5 to 12 DIV, BrdU 2 hours before end of culture. The protocol:
Primary glial cell cultures were prepared from the dorsal telencephalon of newborn (P1) male mice as previously described in Feutz et al, J. Neurocytol, “Isolation and characterization of defective jimpy oligodendrocytes in culture”, 24:865-877 ([…]). Briefly, meninges are removed, and the dorsal telencephalons are microdissected and mechanically dissociated in DMEM supplemented with 10% calf serum, penicillin (50 U/ml), and streptomycin (50 μg/ml) (Thermo Fisher Scientific, France). The cell suspension is plated in a 24-well plates containing 0.5 ml of cultured medium coated with 30 μg/ml poly-1-lysine (Sigma-Aldrich). Cultures containing astrocytes, oligodendrocytes (OLs) and microglia cells are then incubated in 5% CO2 and 95% air in a humidified atmosphere (90%) at 37° C.
[…]. The supplemented culture medium was replaced every other day with a fresh solution. At 12 DIV, the cells were fixed for 20 minutes with 4% paraformaldehyde (PFA) in PBS, then permeabilized with 0.025% Triton X-100 for 10 minutes and blocked for 1 hour with Sea Block buffer (Thermo Fisher Scientific).
The cells were immunostained for BrdU and Olig2. For immunostaining, after overnight incubation with the primary antibodies at 4° C. followed by 3 washes in PBS, the cells were incubated with the appropriate secondary antibodies for 2 hours before washing with PBS and the addition of Fluoromount (Vector, clinisciences, France) as the mounting medium. Images were acquired with immunofluorescence microscopy as described above. (Data not shown).

For assay [5], the system named is postnatal day 10 male pups. Description: Developmental myelination in male pups treated subcutaneously from P3 to P10 (MBP/NF200 immunostaining). It is filed as in vivo, mouse. The settings on record: s.c. every other day from P3, SANT 20 μg/g, testosterone 20 μg.
Assay [6] relates to LPC-induced demyelination model, castrated male mice. Description: Phosphorylated STAT3-expressing astrocytes in castrated male mice demyelinated by lysolecithin. The format is in vivo, mouse. The source says:
[…]. The latter is important for both remyelination and astrocyte reactivity, which is similar to activated microglia involved in local inflammation. […].

Each structure is given as a SMILES string.

On to `CN[C@H]1CC[C@H](N(Cc2cccc(-c3ccncc3)c2)C(=O)c2sc3ccccc3c2Cl)CC1` [SAG, 3-Chloro-N-[trans-4-(methylamino)cyclohexyl]-N-[[3-(4-pyridinyl)phenyl]methyl]benzo[b]thiophene-2-carboxamide], for which, in assay [1] (2 dpl), the “Iba1+ microglia versus control” value is “unaffected”, the “area occupied by GFAP+ astrocytes versus control” value is recorded as “tended to be decreased”, the “density of Arg1+ pro-regenerative microglia” value amounted to 103±7 cells per surface unit and the “density of proliferating Ki67+ PDGFRα+ OPCs” value is reported as 39±2 cells per surface unit. Also, in assay [1] (2 dpl), the “fold enhancement of the density of Arg1+ microglia” value is on record as 2 fold, the “fold increase of the proportion of Iba1 microglia co-expressing Arg1” value was “two-fold”, the “proportion of Iba1 microglia co-expressing Arg1” value is listed as 58±5% and the “total number of PDGFRα+ OPCs versus control” value was “remained unchanged”. Moreover, in assay [1] (10 dpl), the “density of Olig2+ APC+ mature OLs” value is on record as 83±7 cells per surface unit, the “fold increase in PDGFRα+ cells compared to controls” value came out at 2 fold and the “proportion of mature OLs versus control” value is on record as “not significantly different”. For the same compound, in assay [1] (10 dpl, SAG 0.2 μM injected with LPC), the “PDGFRα+ cells (OPCs) per unit surface” value worked out at 121±11 cells per surface unit. For the same compound, in assay [2], the “density of myelinated axons in spinal cord (electron microscopy)” value was “much higher density of myelinated axons”, the “g-ratio (axon diameter/total outer diameter of the myelinated fiber)” value amounted to 0.737±0.005, the “total density of activated Iba1+ microglia in the spinal cord” value is “Neither testosterone nor SAG was found to significantly modify” and the EAE clinical score is given as ~1.0. In assay [2], the “area occupied by Arg1+ cells as percentage of the total area of the lesion” value was 10.9±1.7%, the “percentage of abnormal axons among total axons” value is reported as 14.0±1.7% and the “GFAP-positive area as percentage of the lesion area” value amounted to 25.1±2.2%. Besides, the “Claudin 5-positive area as percentage of the lesion area” value in assay [2] (blood brain barrier tight junction marker, FIG. 5H) is given as 2.35±0.27%. Also, in assay [3] (SAG 0.1 μM or 1 μM alone), the “Effect on Mbp expression when used alone” value is on record as “did not modify Mbp expression”. Further, the “Effect on testosterone-mediated OL differentiation” value in assay [3] (SAG 0.1 μM or 1 μM with testosterone 1 μM) is “slight but significant decrease”. Besides, the “Olig2+ BrdU+ proliferating cells as percentage of total Olig2+ cells” value in assay [4] amounted to 8.4±0.5%.

As to `Cc1nn(-c2ccccc2)c(C)c1C=NN1CCN(Cc2ccccc2)CC1` [SANT-1, (4-Benzyl-piperazin-1-yl)-(3,5-dimethyl-1-phenyl-1H-pyrazol-4-ylmethylene)-amine], the “myelinated area: area occupied by MBP as percentage of total area occupied by NF200 axons” value in assay [5] stood at 75.1±4.3%. In assay [3], the “fold increase in the percentage of PLP+ cells co-expressing MBP compared to control” value is listed as 4 fold and the “percentage of PLP+ cells co-expressing MBP” value is given as 12.4±0.8%. For the same compound, in assay [4] (SANT-1 0.1 μM with testosterone 1 μM), the “Effect on testosterone-induced increase in Olig2+ BrdU+ cells” value was “blocks testosterone-induced increase”.

In the case of `N#Cc1ccc(C2CCCc3cncn32)cc1` (stereo not shown) [fadrozole], in assay [6] (fadrozole per oral route 260 μg/kg with intranasal testosterone, 7 days), the “effect on the testosterone-induced increase of phosphorylated STAT3-expressing astrocytes” value is reported as “inhibited”.

For `C[C@]12CC[C@H]3[C@@H](CCC4=CC(=O)CC[C@@]43C)[C@@H]1CC[C@@H]2O` [testosterone], the “myelinated area: area occupied by MBP as percentage of total area occupied by NF200 axons” value in assay [5] worked out at 78.0±4.1%. Besides, the “number of GFAP+ astrocytes expressing phosphorylated STAT3” value in assay [6] (7 days post-lesion, intranasal testosterone 0.2 mg/day or intranasal estradiol 0.05 mg/day) is recorded as “increased”. In assay [2], the “density of myelinated axons in spinal cord (electron microscopy)” value was “much higher density of myelinated axons”, the “g-ratio (axon diameter/total outer diameter of the myelinated fiber)” value amounted to 0.773±0.003, the “total density of activated Iba1+ microglia in the spinal cord” value is “Neither testosterone nor SAG was found to significantly modify” and the EAE clinical score is ~2.0. For the same compound, in assay [2], the “area occupied by Arg1+ cells as percentage of the total area of the lesion” value amounted to 6.8±1.4%, the “percentage of abnormal axons among total axons” value is on record as 15.8±1.4% and the “GFAP-positive area as percentage of the lesion area” value is 38.8±1.8%. In assay [3], the “fold increase in the percentage of PLP+ cells co-expressing MBP compared to control” value is 4 fold and the “percentage of PLP+ cells co-expressing MBP” value came out at 11.7±1.5%. Moreover, the “Olig2+ BrdU+ proliferating cells as percentage of total Olig2+ cells” value in assay [4] is listed as 3.8±0.6%.
